Here are results for eight compounds from patent US7112676B2, “Pyrimido compounds having antiproliferative activity” (Hoffmann-La Roche Inc., priority 2002, dated 2006).

One data set addresses T1, FGFR.
T1 construct: fused on or other part: GST tag
The data set can be described thus: FGFR kinase HTRF assay. It is filed as biochemical. Particulars: 10 μM ATP, read-out: IC50 (μM) - Enzyme Inhibition Assays FGFR. On the procedure:
(§1) To determine inhibition of KDR, FGFR, EGFR, and PDGFR activity, kinase assays were conducted using an HTRF (Homogeneous Time Resolved Fluorescence) assay. This assay is described in A. J. Kolb et. al., Drug Discovery Today, 1998, 3(7), p 333.
(§2) Kinase activity assays were performed in 96-well polypropylene plates (Falcon) with a total volume of 90 μL in each well. Each well contained 1 μM KDR substrate (Biotin-EEEEYFELVAKKKK), 1 nM activated KDR, and a test compound with one of 8 assay concentrations ranging from 100 μM to […] (1:5 serial dilution). The kinase activity assay was done in the presence of 100 mM HEPES, pH 7.4, 1 mM DTT, 0.1 mM Na2VO4, 25 mM MgCl2, 50 mM NaCl (from KDR stock solution), 1% DMSO (from compound), 0.3 mM ATP (at Km concentration) and 0.02% BSA. The reaction was incubated at 37° C. for 30 minutes. To stop the KDR reaction, 72 μL of reaction mixture was transferred into a STOP plate containing 18 μL of revelation buffer (20 mM EDTA, 50 mM HEPES, pH 7.4, 0.02% BSA, 10 nM Eu-labelled anti-pY antibody (final conc. 2 nM), and 100 nM streptavidin (final conc. 20 nM)). After mixing, 35 μL of solution was transferred into duplicate wells of a 384-well black plate (Costar), and read at 615/665 nm on a Wallac Victor 5 reader.
FGFR, EGFR, and PDGFR activity assays were carried out as described above for the KDR activity assay with the following differences. GST-tagged FGFR enzyme was activated at room temperature for 1 hour in the following activation buffer: 100 mM HEPES, pH 7.4, 50 mM NaCl, 20 mM MgCl2, and 4 mM ATP. The kinase activity assay was performed with 1 μM substrate (Biotin-EEEEYFELV), 1.5 nM activated FGFR, and test compound in the presence of 100 mM HEPES, 1 mM DTT, 0.4 mM MgCl2, 0.4 mM MnCl2, 50 mM NaCl, 1% DMSO, 10 μM ATP (Km=8.5 μM for FGFR), 0.1 mM Na2VO4, and 0.02% BSA, in a total volume of 90 μL. The rest of the assay was performed in the same manner as KDR assay.
(§3) Compound IC50 values were determined from duplicate sets of data, and calculated by using Excel and fitting data to equation Y=[(a−b)/{1+(X/c)^d]+b, where a and b are enzyme activity in the presence of no test inhibitor compound and an infinite amount of inhibitor test compound, respectively, c is the IC50 and d is the hill constant of the compound response. The IC50 value is the concentration of test compound that reduces by 50% the enzyme activity under the test conditions described.

Another data set addresses PDGFR. In words: PDGFR kinase HTRF assay. It is filed as biochemical. To be noted: 2.3 μM ATP, read-out: IC50 (μM) - Enzyme Inhibition Assays PDGFR. As to the method:
as §1, §2
The PDGFR kinase activity assay was performed with 1 μM substrate (Biotin-EEEEYFELV), 1.0 nM PDGFR, test compounds, 100 mM HEPES, pH 7.4, 1 mM DTT, 5 mM MgCl2, 2 mM MnCl2, 1% DMSO, 2.3 μM ATP (Km for PDGFR), 0.1 mM Na2VO4, and 0.02% BSA. The rest of the assay was performed in the same manner as the KDR assay.
as §3

Another data set has as its target EGFR (Homo sapiens, UniProt P00533). In words: EGFR kinase HTRF assay. It is filed as biochemical. Particulars: 0.5 μM ATP, read-out: IC50 (μM) - Enzyme Inhibition Assays EGFR. On the procedure:
as §1, §2
The EGFR kinase activity assay was performed with 1 μM substrate (Biotin-EEEEYFELV), 1.5 nM EGFR, test compounds, 100 mM HEPES, pH 7.4, 1 mM DTT, 5 mM MgCl2, 2 mM MnCl2, 1% DMSO, 0.5 μM ATP (Km for EGFR), 0.1 mM Na2VO4, and 0.02% BSA. The rest of the assay was performed in the same manner as the KDR assay.
as §3

For the next data set, the target named is T2, KDR (Homo sapiens, UniProt P35968).
T2 construct: EEE-tag
T2 sequence (P35968 20-1356, species assumed): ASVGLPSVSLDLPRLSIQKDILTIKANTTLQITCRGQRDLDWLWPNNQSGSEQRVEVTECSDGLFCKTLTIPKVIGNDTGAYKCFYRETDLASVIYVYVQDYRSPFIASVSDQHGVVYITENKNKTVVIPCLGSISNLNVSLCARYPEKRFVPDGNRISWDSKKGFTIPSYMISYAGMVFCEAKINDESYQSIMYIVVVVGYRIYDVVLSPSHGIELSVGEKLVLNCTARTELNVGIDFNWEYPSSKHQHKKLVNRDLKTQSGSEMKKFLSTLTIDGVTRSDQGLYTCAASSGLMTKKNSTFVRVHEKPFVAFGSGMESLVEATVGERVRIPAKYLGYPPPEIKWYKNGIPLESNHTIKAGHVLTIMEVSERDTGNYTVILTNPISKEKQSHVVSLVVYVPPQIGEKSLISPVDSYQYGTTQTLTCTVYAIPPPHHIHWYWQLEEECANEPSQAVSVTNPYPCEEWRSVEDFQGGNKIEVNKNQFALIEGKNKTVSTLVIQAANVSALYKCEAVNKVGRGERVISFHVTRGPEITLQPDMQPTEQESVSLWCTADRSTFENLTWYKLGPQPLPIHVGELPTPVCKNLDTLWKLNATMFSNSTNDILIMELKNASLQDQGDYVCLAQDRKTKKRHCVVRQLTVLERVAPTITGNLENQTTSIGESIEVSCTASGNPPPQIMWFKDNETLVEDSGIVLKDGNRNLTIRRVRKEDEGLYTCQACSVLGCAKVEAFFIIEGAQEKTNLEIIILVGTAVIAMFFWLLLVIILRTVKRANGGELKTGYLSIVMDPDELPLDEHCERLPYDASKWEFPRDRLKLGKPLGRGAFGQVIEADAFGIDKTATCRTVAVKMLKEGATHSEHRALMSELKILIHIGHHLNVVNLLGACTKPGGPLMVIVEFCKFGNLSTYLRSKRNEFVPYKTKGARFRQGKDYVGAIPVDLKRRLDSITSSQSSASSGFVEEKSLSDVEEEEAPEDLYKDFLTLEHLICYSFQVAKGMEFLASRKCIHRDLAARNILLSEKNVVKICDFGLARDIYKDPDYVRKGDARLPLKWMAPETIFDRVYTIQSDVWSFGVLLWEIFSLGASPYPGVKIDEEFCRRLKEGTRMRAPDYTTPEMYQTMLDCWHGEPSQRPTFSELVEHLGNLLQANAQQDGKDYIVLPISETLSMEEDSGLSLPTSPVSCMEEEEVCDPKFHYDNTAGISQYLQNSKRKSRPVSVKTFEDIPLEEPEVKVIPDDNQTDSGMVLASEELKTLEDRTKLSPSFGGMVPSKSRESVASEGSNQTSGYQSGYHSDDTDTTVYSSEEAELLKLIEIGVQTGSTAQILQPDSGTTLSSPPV
In words: KDR kinase HTRF assay. The data set is classed as biochemical. To be noted: 0.3 mM ATP, read-out: IC50 (μM) - Enzyme Inhibition Assays KDR. As to the method: as §1
Prior to kinase reaction, recombinant EEE-tagged KDR was activated in the presence of activation buffer (50 mM HEPES, pH 7.4, 1 mM DTT, 10% glycerol, 150 mM NaCl, 0.1 mM EDTA, 26 mM MgCl2, and 4 mM ATP). The enzyme was incubated at 4° C. for 1 hour.
as §2, §3

Another data set concerns FGF-stimulated HUVEC. In words: FGF-stimulated HUVEC proliferation assay (BrdU). The data set is classed as cell-based. To be noted: Homo sapiens, FGF 5 ng per mL, BrdU labeling, 24 hour exposure, read-out: IC50 (μM) of VEGF and FGF-Stimulated HUVEC Proliferation Assays HUVEC/bFGFR. As to the method:
(§4) The antiproliferative activity of test compounds of this invention in cell-based assays was evaluated by BrdU assay using the BrdU kit (Roche Biochemicals 1-647-229). Human umbilical vein endothelial cells (HUVEC, Clonetics CC-2519) were cultured in EGM-2 (Clonetics CC-3162) medium and seeded at 10000 cells per well in a volume of 200 μL of EGM-2 (Clonetics CC-3162) media in a 96-well flat bottom plates (Costar 3595) overnight. After 24 hours of growth at 37° C. with 5% CO2, the incubation media was removed slowly by aspiration and the content of each well was washed with 300 μL pre-warmed EBM-2 (Clonetics CC-3156) containing 50 μg per mL of gentamycin and 50 ng per mL of amphotercin-B (Clonetics CC-4083). Subsequently, the remaining media was again aspirated and replaced with 160 μL per well of serum starvation media (EBM-2 supplemented with 1% heat inactivated FBS (Clonetics CC-4102), 50 μg per mL gentamycin and 50 ng per mL of amphotercin-B (Clonetics CC-4083), 10 units per mL of Wyeth-Ayerst heparin (NDC0641-0391-25), and 2 mM L-glutamine (GIBCO 25030-081). After serum starving the cells for 24 hours, 20 μL of test compound at 10× test concentration in serum starvation medium with 2.5% DMSO was added to the appropriate wells. The control wells contained 20 μL of serum starvation medium with 2.5% DMSO. Plates were returned to the incubator for 2 hours. After pre-incubating the cells with the test compounds for 2 hours, 20 μL of growth factors at 10× assay concentration diluted in serum starvation media, FGF at 50 ng per mL, or VEGF (R&D systems 293-VE) at 200 ng per mL were added. The final concentration of FGF in the assay was 5 ng per mL and the final concentration of VEGF in the assays was 20 ng per mL. The growth factor free control wells had 20 μL per well of serum starvation media with the same amount of BSA as the wells with growth factors. The plates were returned to the incubator for an additional 22 hours.
(§5) After 24 hour exposure to the test compounds, the cells were labeled with BrdU (Roche Biochemicals 1-647-229), by adding 20 μL per well of BrdU labeling reagent that has been diluted (1:100) in serum starvation medium. The plates were then returned to the incubator for 4 hours. The labeling medium was removed by draining the medium onto paper towels. The cells were fixed and DNA denatured by adding 200 μL of fixation/denaturation solution to each well and incubating at room temperature for 45 minutes. The fixation/denaturation solution was drained onto paper towels and to each well was added 100 μL of anti-BrdU-POD and the wells were incubated for 2 hours at room temperature. The antibody solution was removed and the wells were each washed 3–4 times with 300 μl PBS. 100 μL of the TMB substrate solution was added to each well and the wells were incubated at room temperature for 5–8 minutes. The reaction was then stopped by adding 100 μL per well of 1 M phosphoric acid. The plates were read at 450 nm with reference wavelength of 650 nm. The percent inhibition for each test compound was calculated by subtracting the absorbency of the blank (no cells) wells from all wells, then subtracting the division of the average absorbency of each test duplicate by the average of the controls from 1. The final product was then multiplied by 100 (% of inhibition=(1−average absorbency of test duplicate/average of control)100). The IC50 value is the concentration of test compound that inhibits by 50% BrdU labeling, and is a measure of inhibition of cell proliferation. The IC50 is determined from the linear regression of a plot of the logarithm of the concentration versus percent inhibition.

The next data set deals with VEGF-stimulated HUVEC. In words: VEGF-stimulated HUVEC proliferation assay (BrdU). The data set is classed as cell-based. To be noted: Homo sapiens, VEGF 20 ng per mL, BrdU labeling, 24 hour exposure, read-out: IC50 (μM) of VEGF and FGF-Stimulated HUVEC Proliferation Assays HUVEC/VEFG. On the procedure:
as §4, §5

EGFR, sequence (P00533 25-1210, species assumed): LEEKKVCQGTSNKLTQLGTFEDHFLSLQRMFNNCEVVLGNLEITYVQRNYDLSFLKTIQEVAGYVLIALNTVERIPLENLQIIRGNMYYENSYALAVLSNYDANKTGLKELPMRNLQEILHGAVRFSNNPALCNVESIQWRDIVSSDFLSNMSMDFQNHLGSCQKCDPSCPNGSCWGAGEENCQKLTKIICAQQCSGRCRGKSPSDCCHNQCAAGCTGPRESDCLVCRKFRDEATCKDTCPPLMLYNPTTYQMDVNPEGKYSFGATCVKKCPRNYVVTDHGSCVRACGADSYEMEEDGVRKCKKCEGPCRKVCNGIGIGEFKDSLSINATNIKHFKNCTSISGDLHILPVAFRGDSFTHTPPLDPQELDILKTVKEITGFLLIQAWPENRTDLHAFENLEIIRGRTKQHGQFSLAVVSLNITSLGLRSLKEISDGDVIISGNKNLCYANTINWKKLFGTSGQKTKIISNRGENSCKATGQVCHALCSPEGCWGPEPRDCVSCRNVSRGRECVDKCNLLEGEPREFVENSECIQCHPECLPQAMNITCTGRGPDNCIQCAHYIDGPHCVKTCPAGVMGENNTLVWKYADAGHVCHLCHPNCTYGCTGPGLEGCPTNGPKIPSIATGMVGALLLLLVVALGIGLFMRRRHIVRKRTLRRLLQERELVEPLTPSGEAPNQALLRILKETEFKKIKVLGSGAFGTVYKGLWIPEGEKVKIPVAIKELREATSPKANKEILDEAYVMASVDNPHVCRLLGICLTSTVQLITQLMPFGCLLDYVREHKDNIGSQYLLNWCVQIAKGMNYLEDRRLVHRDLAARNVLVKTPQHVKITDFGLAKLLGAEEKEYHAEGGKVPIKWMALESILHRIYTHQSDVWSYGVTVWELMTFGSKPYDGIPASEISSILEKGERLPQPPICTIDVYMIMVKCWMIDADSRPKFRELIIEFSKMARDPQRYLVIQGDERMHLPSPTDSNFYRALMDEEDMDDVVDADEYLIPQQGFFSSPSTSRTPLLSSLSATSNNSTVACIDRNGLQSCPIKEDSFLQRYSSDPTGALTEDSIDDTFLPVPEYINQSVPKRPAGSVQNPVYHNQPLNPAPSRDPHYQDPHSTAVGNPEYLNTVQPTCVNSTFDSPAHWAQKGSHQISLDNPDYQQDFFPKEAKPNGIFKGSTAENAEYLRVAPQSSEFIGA

With `CCC1c2cnc(Nc3ccccc3)nc2N(c2ccccc2)C(=O)N1c1ccc(OC)cc1` (racemic) [Example 7e, (±)-4-Ethyl-3-(4-methoxy-phenyl)-1-phenyl-7-phenylamino-3,4-dihydro-1H-pyrimido[4,5d]pyrimidin-2-one], the melting point lay within 172 to 176 °C. Also, the IC50 on FGFR was less than 10 µM. For the same compound, the IC50 on PDGFR is less than 10 µM. On EGFR, the IC50 was less than 10 µM. On KDR, the IC50 was less than 10 µM.

The compound `COc1ccc(N2C(=O)N(c3ccccc3)c3nc(Nc4ccccc4)ncc3C2C(C)C)cc1` (racemic) [Example 11e, (±)-4-Isopropyl-3-(4-methoxy-phenyl)-1-phenyl-7-phenylamino-3,4-dihydro-1H-pyrimido[4,5-d]pyrimidin-2-one] came in with a melting point of 229 to 235 °C. Further, the IC50 on FGFR is greater than 10 µM. In addition, the IC50 at PDGFR is greater than 10 µM. Also, the IC50 at EGFR was less than 10 µM. In addition, the IC50 on KDR is greater than 10 µM.

`COc1ccc(Cl)c(N2C(=O)N(c3ccccc3)c3nc(Nc4ccccc4)ncc3C2C)c1` (racemic) [Example 12c, (±)-3-(2-Chloro-5-methoxy-phenyl)-4-methyl-1-phenyl-7-phenylamino-3,4-dihydro-1H-pyrimido[4,5-d]pyrimidin-2-one]: the IC50 at FGFR, on PDGFR, on EGFR and on KDR was less than 10 µM each time.

For the compound `COc1ccc(N2C(=O)N(c3ccccc3)c3nc(N(C(C)=O)c4ccccc4)ncc3C2C)cc1` (racemic) [Example 19, (±)-N-[6-(4-Methoxy-phenyl)-5-methyl-7-oxo-8-phenyl-5,6,7,8-tetrahydro-pyrimido[4,5-d]pyrimidin-2-yl]-N-phenyl-acetamide], the IC50 on FGFR, on PDGFR, on EGFR, in the data set with FGF-stimulated HUVEC, at KDR and in the data set on VEGF-stimulated HUVEC was less than 10 µM each time.

For the compound `COc1ccc(N2C(=O)N([C@H]3CC[C@H](O)CC3)c3nc(Nc4ccccc4)ncc3C2C)cc1` (mixture of isomers) [Example 20b, (±)-1-(trans-4-Hydroxy-cyclohexyl)-3-(4-methoxy-phenyl)-4-methyl-7-phenylamino-3,4-dihydro-1H-pyrimido[4,5-d]pyrimidin-2-one], the IC50 on FGFR, at PDGFR, on EGFR, in the data set with FGF-stimulated HUVEC, on KDR and in the data set on VEGF-stimulated HUVEC was less than 10 µM in each case.

In the case of `COc1ccc(N2C(=O)N(c3ccccc3)c3nc(Nc4ccccc4)ncc3[C@H]2C)cc1` (single isomer, unassigned) [Example 2], the melting point was in the range of 218 to 233 °C. Moreover, on FGFR, the IC50 is less than 10 µM. For the same compound, the IC50 on PDGFR is less than 10 µM. Also, the IC50 on EGFR was less than 10 µM. In addition, the IC50 on KDR is less than 10 µM.

`COc1ccc(N2C(=O)N([C@@H](C)CO)c3nc(Nc4ccccc4)ncc3C2C)cc1` (stereo partly drawn) [Example 13d, 1-(2-Hydroxy-1-(S)-methyl-ethyl)-3-(4-methoxy-phenyl)-4-methyl-7-phenylamino-3,4-dihydro-1H-pyrimido[4,5-d]pyrimidin-2-one] came in with a melting point of 165 to 180 °C.

With `COc1ccc(N2C(=O)N([C@H](C)CO)c3nc(Nc4ccccc4)ncc3[C@H]2C)cc1` [Example 14f, 1-(2-Hydroxy-1-(R)-methyl-ethyl)-3-(4-methoxy-phenyl)-4-(R)-methyl-7-phenylamino-3,4-dihydro-1H-pyrimido[4,5-d]pyrimidin-2-one], the melting point fell in the range of 158 to 162 °C. At FGFR, the IC50 was less than 10 µM. The IC50 at PDGFR was less than 10 µM. In addition, the IC50 at EGFR was less than 10 µM. The IC50 at KDR was less than 10 µM.
